Reference: patent US12685733B2, “Indole molecules and use thereof in the inhibition of DNA polymerases” (BioVentures, LLC, priority 2019, dated 2026)

Experiments:
[1] = biological target: T1, hpol κ (Homo sapiens, UniProt Q9UBT6); assay: HPG labeling (chemical footprinting) with LC-MS; set-up: hpol κ (residues 19-526); made in house; conditions: IAG-10 20 and 100 μM added
T1 sequence (Q9UBT6 19-526): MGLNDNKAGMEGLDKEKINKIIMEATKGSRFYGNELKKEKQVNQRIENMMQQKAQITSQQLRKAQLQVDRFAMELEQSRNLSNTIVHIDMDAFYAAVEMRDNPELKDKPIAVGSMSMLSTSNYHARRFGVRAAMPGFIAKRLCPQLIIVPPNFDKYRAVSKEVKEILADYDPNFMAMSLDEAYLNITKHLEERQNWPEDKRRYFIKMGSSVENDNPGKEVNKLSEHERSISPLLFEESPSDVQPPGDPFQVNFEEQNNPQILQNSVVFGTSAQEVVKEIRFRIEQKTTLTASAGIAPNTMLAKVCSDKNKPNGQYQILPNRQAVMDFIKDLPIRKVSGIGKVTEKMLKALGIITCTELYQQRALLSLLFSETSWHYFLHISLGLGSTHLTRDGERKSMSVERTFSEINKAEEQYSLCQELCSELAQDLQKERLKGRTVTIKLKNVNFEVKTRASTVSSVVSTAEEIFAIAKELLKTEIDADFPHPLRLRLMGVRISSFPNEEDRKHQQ
Description: HPG is a commonly used amino-acid modifier, which when reacted with a protein, modifies the L-arginine side chains selectively. HPG labeling experiments were performed with hpol κ (10 μM) in the presence or absence of UAMS-48. Briefly, hpol κ was pre-incubated with either 20 μM (1:2 molar ratio) or 100 μM (1:10 molar ratio) IAG-10 for 10 mins at 37° C. in 50 mM HEPES buffer (pH 7.8) containing 200 mM NaCl, 10 mM MgCl2, and 10% v/v DMSO. The HPG labeling was carried out at 37° C. in the dark for 1 hr by adding 500 μM of HPG to the pre-incubated reaction mix, followed by addition of 200 mM of free L-arginine to quench the reaction after 1 hr. […]
The peak intensity was then quantified manually using the corresponding m/z value and the relative abundance for each modified peptide was calculated as a function of area under the peak in Xcalibur™ software (ThermoFisher Scientific). The percentage of modified arginine measured by mass spectrometry was calculated as a fraction of total arginine (i.e. unmodified+HPG modified) quantified for a specific residue. […]
Next, Chemical footprinting was used in an effort to ascertain the binding site of IAG-10 on hpol κ. […] After quenching the reaction and gel electrophoresis, the modified protein was trypsin-digested, and the resulting peptides were analyzed by LC-MS. […]

[2] = tested on: hpol κ-proficient HAP-1 cells; assay: supF mutagenesis assay; conditions: 1 μM IAG-10, 24 h
Description: HAP-1 hpol κ-proficient and hpol κ-deficient cells were cultured in 10 cm dishes to ~80% confluency in Iscove's modified Dulbecco's medium (Invitrogen) containing 10% (v/v) FBS supplemented with Ix antibiotic antimycotic solution (Sigma). They were transfected with unmodified (control) and methylmethanesulfonate (MMS)-modified pSP189 plasmid harboring the supF gene either in the absence or presence of 1 μM IAG-10. For plasmid modification with MMS, the pSP189 plasmid was first incubated with 100 mM MMS in 10 mM HEPES buffer (pH 7.5) containing 50 mM KCl, 5 mM MgCl2, and 1 mM dithiothreitol at RT for 1 h. The MMS-modified plasmid was then purified by ethanol precipitation and used in subsequent transfections, similar to the unmodified plasmid. […] The recovered plasmids (75-100 ng) were then transformed into E. coli MBM7070 strain by electroporation, and the transformed bacterial cells were plated on LB-agar plates containing 100 μg/mL ampicillin, 1 mM isopropyl-I-thio-fi-Dgalactopyranoside (IPTG) and 100 μg/mL X-gaL The resulting blue (nonmutated) and white (mutated) colonies were counted. The mutation frequency was calculated as the ratio of mutant (white) colonies to total (blue+white) colonies. At least 10 000 colonies were counted for each condition, and the results reported represent the mean (±SD) of experiments performed in biological triplicate.

[3] = biological target: T2, hpol ι (Homo sapiens, UniProt Q9UNA4); assay: Gel-based primer extension assay; assay type: biochemical; conditions: 10 μM; 10 nM hpol ι
T2 construct: hpol ι (residues 1-446); made in house
T2 sequence (Q9UNA4 1-446): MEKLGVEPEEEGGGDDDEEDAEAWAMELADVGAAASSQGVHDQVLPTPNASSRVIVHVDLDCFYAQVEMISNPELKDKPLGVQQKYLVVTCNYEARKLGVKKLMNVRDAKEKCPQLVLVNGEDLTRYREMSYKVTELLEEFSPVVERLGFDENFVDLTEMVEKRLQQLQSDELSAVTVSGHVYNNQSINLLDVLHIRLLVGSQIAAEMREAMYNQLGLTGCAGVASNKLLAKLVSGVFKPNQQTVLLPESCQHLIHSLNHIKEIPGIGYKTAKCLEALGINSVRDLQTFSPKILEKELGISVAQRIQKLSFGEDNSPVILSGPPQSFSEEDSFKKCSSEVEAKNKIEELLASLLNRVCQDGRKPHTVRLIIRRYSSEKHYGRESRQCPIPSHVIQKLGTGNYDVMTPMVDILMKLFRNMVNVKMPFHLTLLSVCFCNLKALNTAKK

Cl.[H]/N=C(\N)NN=Cc1cn(C(=O)c2cccc3ccccc23)c2ccc(Cl)cc12 [IAG-10, (E)-2-((1-(1-naphthoyl)-5-chloro-1H-indol-3-y1)methylene)hydrazine-1-carboximidamide hydrochloride]
decrease in the fraction of HPG-modified peptides (Arg145, Arg149, Arg505) [1]: > 50%
fraction of HPG-modified peptides containing Arg48 [1]: large increase
mutation frequency for the undamaged plasmid [2]: did not change the mutation frequency
mutation frequency for MMS-damaged DNA over the undamaged control plasmid ([2]; MMS-damaged pSP189): approximately twofold
polymerase activity relative to DMSO control [3]: only hpol κ was inhibited
